The values that follow come from PMC11373361, “Expanding the inhibitor space of the WWP1 and WWP2 HECT E3 ligases” (Journal of Enzyme Inhibition and Medicinal Chemistry, 2024).

One series deals with WWP1. More on the design: method as in PMID 31097636. As to conditions: cited from earlier work.
The subject of the next series is WWP2. The arrangement: method as in PMID 30207403. The note with it: cited from earlier work.
Another series has as its target T1, UbcH7 (Homo sapiens, UniProt P68036).
T1 construct: made in house; host or cells: E. coli BL21-CodonPlus RP (plasmid pET3a-UbcH7 His, gifted by Professor Martin Scheffner)
In words: UbcH7 counter autoubiquitination assay. The format is biochemical. As to conditions: 1 mM compound, 1% DMSO, in Table S6 73735 and 217913 synthesised. Here is the method:
(§1) Cell lysate containing His-tagged WWP1-L34H or GST-tagged WWP2-FL proteins were incubated on either 96-well Clear Pierce glutathione or nickel-coated plates for 1 h in PBS. Reaction mixtures of either 3 ng/well GST-Uba1 and 15 ng/well UbcH7 or 10 ng/well His-Uba1 and 150 ng/well His-UbcH7 were incubated together in 25 mM Tris pH 8.0, 100 mM NaCl, 4 mM MgCl2 containing 60 ng/well FLAG-ubiquitin and 1.25 mM ATP for 40 min. A prior 1% BSA plate blocking step is required for nickel-coated plates. After plate washing, 2 μL of the compound was added at the desired concentration (0.1 – 1% DMSO) followed by 18 μL of the reaction mixture. This was then incubated for 2 h with 0% and 100% controls before 100 μL of anti-FLAG M2-Peroxidase HRP (1: 10,000 PBST) was added to each well and incubated for 1 h. Finally, 100 μL of 1 × TMB substrate solution (Invitrogen) was added to each well and incubated for up to 10 min until sufficient blue colour change was observed. To stop the reaction, 100 μL of 1 M HCl was added. GST-tagged Uba1 counter-assay followed a similar protocol first incubating cell lysate for 1 h before adding 20 µL of reaction mixture containing 60 ng/well FLAG-ubiquitin, 1.25 mM ATP, and 1 mM compound at 1% DMSO. His-tagged UbcH7 counter-assays preincubated 3 ng/well GST-Uba1 and 200 ng/well UbcH7 with the reaction mixture components (60 ng/well FLAG-ubiquitin, 1.25 mM ATP, and 1 mM compound at 1% DMSO) for 1 h before incubating onto nickel-coated plates for a further 1 h. All other steps were followed. The plates were washed three times with PBST (and 15 mM Imidazole) between each step. Quantification was measured by absorbance read at 450 nm, standardised to the 0% and 100% activity controls. A visual representation of the assay steps is shown in SI Figure S13. All assay optimisations have been previously reported by Watt and colleagues. IC50 non-linear regression curves were calculated in GraphPad v10.2 (Prism).
These preliminary hit compounds were further screened in dose-dependent ELISA autoubiquitination assays from 500 µM − 5 nM, with three NSC compounds for WWP1 (13151, 73735 & 85433) and only two NSC compounds for WWP2 (57103 & 217913) showing a dose-response (SI Table S4). […] To ensure the intended target was being inhibited and not the […] Uba1 (E1) and UbcH7 (E2) enzymes used in the catalytic cascade of the assay, a counter autoubiquitination screen was utilised. Upon counter-activity analysis, only with NSC-217913 did UbcH7 retain more than 90% activity and so this was selected as the sole validated hit compound from our inhibition screen (SI Table S6).

In a further series the target is T2, WWP1-L34H (Homo sapiens, UniProt Q9H0M0).
T2 construct: WWP1- 2,3-linker-WW3-WW4-HECT (WWP1-L34H); made in house; host or cells: E. coli BL21-CodonPlus RP (plasmid pET32a-WWP1-L34H, gifted by Dr Wenyu Wen)
T2 sequence (Q9H0M0 415-922, stated change not applied): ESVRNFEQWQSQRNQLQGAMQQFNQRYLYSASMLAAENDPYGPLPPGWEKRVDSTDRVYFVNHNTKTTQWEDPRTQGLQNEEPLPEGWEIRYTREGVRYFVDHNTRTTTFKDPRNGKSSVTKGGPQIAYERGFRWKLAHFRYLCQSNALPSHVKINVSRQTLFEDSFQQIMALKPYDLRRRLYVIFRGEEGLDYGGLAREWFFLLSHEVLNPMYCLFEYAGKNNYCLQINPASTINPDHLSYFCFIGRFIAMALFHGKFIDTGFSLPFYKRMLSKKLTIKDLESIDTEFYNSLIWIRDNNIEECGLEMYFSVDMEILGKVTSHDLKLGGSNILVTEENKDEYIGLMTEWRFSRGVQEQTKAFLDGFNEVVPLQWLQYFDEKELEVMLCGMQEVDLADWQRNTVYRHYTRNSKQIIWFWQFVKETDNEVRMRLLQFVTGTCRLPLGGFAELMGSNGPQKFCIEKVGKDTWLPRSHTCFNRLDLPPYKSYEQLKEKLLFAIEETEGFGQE
The series can be described thus: WWP1 ELISA autoubiquitination assay. In kind it is biochemical. How it is done:
as §1
(§2) The DSF hit compounds were initially screened using a single-shot WWP1 and WWP2 ELISA autoubiquitination assay at 500 µM compound (1% DMSO), measuring inhibition against their relative autoubiquitination activity following protocols previously described. […] Four NSC compounds for WWP1 (13151, 73735, 85433 & 637578) and three NSC compounds for WWP2 (26112, 57103 & 217913) were initially selected having a threshold of less than 50% relative activity when compared to 0% and 100% controls (Figure 2).
(§3) The resulting synthesised analogues were screened using the single-shot ELISA autoubiquitination assay at 1 mM compound concentration (1% DMSO) before IC50 values were calculated for hit compounds (SI Figure 2–4).

For another series, the target named is T3, WWP2-FL (Homo sapiens, UniProt O00308).
T3 construct: full-length WWP2 (WWP2-FL); made in house; host or cells: E. coli BL21-CodonPlus RP (plasmid pGEX2T-WWP2-FL, Dr Andrew Chantry's Lab)
T3 sequence (O00308 whole entry): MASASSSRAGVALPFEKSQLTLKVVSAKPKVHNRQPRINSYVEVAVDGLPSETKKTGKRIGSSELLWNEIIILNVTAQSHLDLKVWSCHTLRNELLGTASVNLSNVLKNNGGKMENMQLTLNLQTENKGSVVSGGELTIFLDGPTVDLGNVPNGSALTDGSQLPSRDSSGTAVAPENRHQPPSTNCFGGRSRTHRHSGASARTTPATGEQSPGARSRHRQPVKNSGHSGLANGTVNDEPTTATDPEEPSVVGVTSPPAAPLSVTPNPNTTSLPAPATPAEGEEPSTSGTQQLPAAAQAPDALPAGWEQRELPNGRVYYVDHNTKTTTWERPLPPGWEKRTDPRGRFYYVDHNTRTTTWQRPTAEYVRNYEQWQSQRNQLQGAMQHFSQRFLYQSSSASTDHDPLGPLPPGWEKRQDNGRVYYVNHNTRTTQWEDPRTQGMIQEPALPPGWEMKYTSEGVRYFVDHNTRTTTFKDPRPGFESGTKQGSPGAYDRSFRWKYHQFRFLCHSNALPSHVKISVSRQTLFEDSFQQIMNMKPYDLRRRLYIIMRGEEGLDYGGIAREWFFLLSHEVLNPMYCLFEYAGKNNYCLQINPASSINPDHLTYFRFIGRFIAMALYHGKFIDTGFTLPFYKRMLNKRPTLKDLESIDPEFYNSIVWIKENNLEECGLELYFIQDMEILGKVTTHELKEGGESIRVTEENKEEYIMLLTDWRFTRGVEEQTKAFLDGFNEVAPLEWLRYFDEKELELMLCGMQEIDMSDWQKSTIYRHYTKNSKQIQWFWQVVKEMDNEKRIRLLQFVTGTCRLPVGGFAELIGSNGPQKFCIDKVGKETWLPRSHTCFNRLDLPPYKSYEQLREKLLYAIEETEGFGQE
In words: WWP2 ELISA autoubiquitination assay. In kind it is biochemical. Here is the method:
as §1, §2, §3
ELISA Autoubiquitination Assay
Figure S13. Schematic diagram of the WWP2 ELISA autoubiquitination assay. (1a) Immobilisation of GST-Tagged WWP2 on glutathione coated plates. The GST-tagged (green) WWP2-FL (orange) is bound to glutathione (black), further linked via an SSMPB linker (pink) bound to haemoglobin (red). (1b) Reaction mixture of His-E1, His-E2 and flag-tagged Ub. Flag-tagged (red) Ub (dark pink) is first charged to Uba1/E1 (light pink) using ATP (blue) and then transferred to UbcH7/E2 (light brown).
(2) Ub charged E2 incubation with immobilised WWP2. UbcH7/E2 transfers flag-tagged Ub to WWP2 before WWP2 auto-ubiquitination occurs in the absence or presence of compounds (blue). (3) Incubation of recombinant HRP anti-flag antibody with auto-ubiquitinated WWP2. Anti-flag antibody (purple) containing recombinant HRP (orange) associates with the flag-tagged Ub. (4) HRP-mediated oxidation of TMB.
Single-electron oxidation of TMB by HRP in the presence of HO creates first a blue colour change, before acidification results in a yellow colour change (450 nm) stopping

The mark [1] stands for this setting: synthesised compound, WWP1-L34H, 1% DMSO, 95% CI range in brackets.
The mark [2] stands for this setting: synthesised compound, WWP2-FL, 1% DMSO, 95% CI range in brackets.
Where [3] appears, read: sample used directly from the NCI library, dose range 500 µM - 5 nM.

SMILES strings stand for the structures. pIC50: −log10 of the molar value. “And” between values parts separate entries of the source, which are not always exact repeats. Equal values may be shown once. A value given as a limit tells only on which side of the number the result lay.

T1 sequence (P68036 whole entry): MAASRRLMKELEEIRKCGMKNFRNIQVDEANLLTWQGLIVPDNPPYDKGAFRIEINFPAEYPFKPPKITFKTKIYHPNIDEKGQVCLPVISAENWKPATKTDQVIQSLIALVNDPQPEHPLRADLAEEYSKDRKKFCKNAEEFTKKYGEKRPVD

`CCc1ccc(C=CC(=O)Nc2ccc(C(C)=O)cc2)o1` [Heclin]: the pIC50 in the series on WWP1 is 5.16.

Consider `COCCn1c2nc(=O)n(-c3ccccc3)c(=O)c-2nc2ccccc21` [NSC-288387], for which the pIC50 with WWP2 was 5.64.

`O=C(O)CSc1nc2nc(Cl)c(Cl)nc2[nH]1` [Compound 15, ({5,6-dichloro-1H-imidazo[4,5-b]pyrazine-2-yl}sulfanyl)acetic acid] had a melting point of 219.1 to 220.7 °C. Moreover, the “UbcH7 Activity” value on UbcH7 was determined as 93.0 ± 1.0%. Moreover, on WWP1-L34H (setting [1]), the negative logarithm of the IC50 (pIC50) was 3.43. For the same compound, on WWP2-FL (setting [2]), the pIC50 was 3.18 and the “WWP2 IC50” value is on record as “only weakly”.

Turning to `CCOC(=O)CSc1nc2nc(Cl)c(Cl)nc2[nH]1` [Compound 6, Ethyl 2-({5,6-dichloro-1H-imidazo[4,5-b]pyrazine-2-yl}sulfanyl)-acetate], the figures for the “UbcH7 Activity” value on UbcH7 and on UbcH7 (listed as NSC-217913) were 92.2 ± 1.1% and “more than 90%”, respectively. The pIC50 on WWP1-L34H (setting [3]) was 4.48; against WWP1-L34H (setting [1]), 3.80; at WWP2-FL (setting [3]), > 4.00 and 4.16. In addition, the “relative autoubiquitination activity, single-shot” value at WWP2-FL (500 µM compound, 1% DMSO, normalised to 0% and 100% controls) is reported as “less than 50%”. Also, the “WWP2 IC50” value on WWP2-FL (synthesised compound, WWP2-FL, 1% DMSO, 95% CI range in brackets, listed as 6/217913) was “Unstable^a”; at WWP2-FL (synthesised compound, WWP2-FL, 1% DMSO, 95% CI range in brackets, listed as NSC-217913) it was “too weak to determine accurately”.
